Common to all, as to assay type: physicochemical
The subject of one data set is dsDNA. Nature of the data set: Quantum yield, absorbance and emission of dyes with dsDNA. The following applies: for absorbance λEx dsDNA / emission λmaxEM dsDNA: Table 1; for Em λ (ds DNA): Example 1.
In the next data set the test system is ds DNA. Nature of the data set: Relative brightness of stains with ds DNA (protocol of Nygren et al.). How it is done:
(§1) The relative brightness of certain compounds (Table 2) was determined based on the protocol in Nygren, J., Svanvik, N., Kubista, M. (1998) Biopolymers, Vol. 46, 39-51, which is incorporated by reference herein.

Another data set deals with ss DNA. In words: Relative brightness of stains with ss DNA (protocol of Nygren et al.). On the procedure: as §1

Structures can show the parent of a compound that is named as a salt.

Consider 17 molecules from patent US9458499B2, “Nucleic acid binding dyes and uses therefor” (PROMEGA CORPORATION, priority 2009, dated 2016).

In the case of `CCCN(CCCN(C)C)c1cc(/C=C2\Sc3cccc4c3N2CCC4)c2ccccc2[n+]1C` [PBI 3678, 1-methyl-4-((5,6-dihydrothiazolo[5,4,3-ij]quinolin-2(4H)-ylidene)methyl)-2-((3-(dimethylamino)propyl)(propyl)amino)quinolinium trifluoroacetate], in the data set with dsDNA, the “quantum yield (Φ) dsDNA” value was found to be 0.68, the absorbance λEx dsDNA worked out at 494 nm and the “emission λmaxEM dsDNA” value is 529.

Turning to `CN(C)CCN(Cc1ccccc1)c1cc(/C=C2/Sc3cccc4c3N2CCC4)c2ccccc2[n+]1-c1ccccc1` [PBI 3666, 2-(benzyl(2-(dimethylamino)ethyl)amino)-4-((5,6-dihydrothiazolo[5,4,3-ij]quinolin-2(4H)-ylidene)methyl)-1-phenylquinolinium trifluoroacetate], in the data set on dsDNA, the “quantum yield (Φ) dsDNA” value came to 0.34, the absorbance λEx dsDNA turned out to be 494 nm and the “emission λmaxEM dsDNA” value came to 535.

As to `CCCN(CCC[N+](C)(C)C)c1cc(/C=C2\Sc3cccc4c3N2CCC4)c2ccc(OC)cc2[n+]1C` [compound 4053, 4-((5,6-dihydrothiazolo[5,4,3-ij]quinolin-2(4H)-ylidene)methyl)-7-methoxy-1-methyl-2-(propyl(3-(trimethylammonio)propyl)amino)quinolinium], in the data set on ds DNA, the “Relative Brightness ds DNA” value stood at 1.26. Further, the “Relative Brightness ss DNA” value in the data set with ss DNA was determined as 1.82.

For the molecule `CN(C)CCCN(CCCN(C)C)C1=C/C(=C\c2sc3cccc4c3[n+]2CCC4)c2ccccc2N1c1ccccc1` [PBI 3646, 1-((2-(Bis(3-(dimethylamino)propyl)amino)-1-phenylquinolin-4(1H)-ylidene)methyl)-7,8-dihydro-6H-thiazolo[5,4,3-ij]quinolin-9-ium], in the data set on dsDNA, the “Em λ (ds DNA)” value is on record as 531 nm, the “quantum yield (Φ) dsDNA” value stood at 0.43, the absorbance λEx dsDNA worked out at 504 nm and the “emission λmaxEM dsDNA” value stood at 531.

On to `CCCN(CCCN(C)C)c1cc(/C=C2\Sc3cccc4c3N2CCC4)c2ccccc2[n+]1Cc1ccccc1` [PBI 3677, 1-benzyl-4-((5,6-dihydrothiazolo[5,4,3-ij]quinolin-2(4H)-ylidene)methyl)-2-((3-(dimethylamino)propyl)(propyl)amino)quinolinium trifluoroacetate], for which, in the data set on dsDNA, the “quantum yield (Φ) dsDNA” value came to 0.72, the absorbance λEx dsDNA was determined as 494 nm and the “emission λmaxEM dsDNA” value amounted to 533.

For `CN(C)CCCN(CCCN(C)C)C1=C/C(=C\c2sc3cccc4c3[n+]2CCC4)c2ccccc2N1CCCc1ccccc1` [PBI 3675, 1-((2-(bis(3-(dimethylamino)propyl)amino)-1-(3-phenylpropyl)quinolin-4(1H)-ylidene)methyl)-7,8-dihydro-6H-thiazolo[5,4,3-ij]quinolin-9-ium], in the data set on dsDNA, the “Em λ (ds DNA)” value came to 535 nm, the “quantum yield (Φ) dsDNA” value was 0.31, the absorbance λEx dsDNA came out at 503 nm and the “emission λmaxEM dsDNA” value worked out at 535.

With `CN1C=C/C(=C\c2sc3cccc4c3[n+]2CCC4)c2ccccc21` [compound 3632, 1-((1-Methylquinolin-4(1H)-ylidene)methyl)-7,8-dihydro-6H-thiazolo[5,4,3-ij]quinolin-9-ium], in the data set with dsDNA, the “Em λ (ds DNA)” value is 529 nm, the “quantum yield (Φ) dsDNA” value was 0.2, the absorbance λEx dsDNA stood at 504 nm and the “emission λmaxEM dsDNA” value stood at 529.

Regarding `CCCN(CCCN(C)C)c1cc(/C=C2/Sc3ccccc3N2C)c2ccccc2[n+]1-c1ccccc1` [SYBR Green 1, reference compound], the “Relative Brightness ds DNA” value in the data set with ds DNA came to 1.

Turning to `CCCCN(CCCN(C)C)c1cc(/C=C2/Sc3cccc4c3N2CCC4)c2ccccc2[n+]1-c1ccccc1` [PBI 3667, 2-(butyl(3-(dimethylamino)propyl)amino)-4-((5,6-dihydrothiazolo[5,4,3-ij]quinolin-2(4H)-ylidene)methyl)-1-phenylquinolinium trifluoroacetate], in the data set on dsDNA, the “quantum yield (Φ) dsDNA” value worked out at 0.68, the absorbance λEx dsDNA turned out to be 494 nm and the “emission λmaxEM dsDNA” value is reported as 529.

Regarding `CN(C)CCN(C)C1=C/C(=C\c2sc3cccc4c3[n+]2CCC4)c2ccccc2N1c1ccccc1` [compound 3568, 1-((2-((2-(Dimethylamino)ethyl)(methyl)amino)-1-phenylquinolin-4(1H)-ylidene)methyl)-7,8-dihydro-6H-thiazolo[5,4,3-ij]quinolin-9-ium], in the data set with dsDNA, the “Em λ (ds DNA)” value is listed as 529 nm, the “quantum yield (Φ) dsDNA” value amounted to 0.39, the absorbance λEx dsDNA was 466 nm and the “emission λmaxEM dsDNA” value stood at 529.

Regarding `CCCN(CCCN(C)C)C1=C/C(=C\c2sc3cccc4c3[n+]2CCC4)c2ccccc2N1c1ccccc1` [PBI 3654, 1-((2-((3-(Dimethylamino)propyl)(propyl)amino)-1-phenylquinolin-4(1H)-ylidene)methyl)-7,8-dihydro-6H-thiazolo[5,4,3-ij]quinolin-9-ium], in the data set with dsDNA, the “Em λ (ds DNA)” value stood at 529 nm, the “quantum yield (Φ) dsDNA” value worked out at 0.70, the absorbance λEx dsDNA was 498 nm and the “emission λmaxEM dsDNA” value is 529.

With `COc1ccc2c(/C=C3\Sc4cccc5c4N3CCC5)cc(N(C)C)[n+](Cc3ccccc3)c2c1` [PBI 4051, 1-benzyl-4-((5,6-dihydrothiazolo[5,4,3-ij]quinolin-2(4H)-ylidene)methyl)-2-(dimethylamino)-7-methoxyquinolinium], the “Relative Brightness ds DNA” value with ds DNA worked out at 0.67. Also, the “Relative Brightness ss DNA” value in the data set on ss DNA was found to be 1.10.

Turning to `CCCN(CCCN(C)C)c1cc(/C=C2/Sc3cccc4c3N2CCC4)c2ccccc2[n+]1CCCc1ccccc1` [PBI 3679, 4-((5,6-Dihydrothiazolo[5,4,3-ij]quinolin-2(4H)-ylidene)methyl)-2-((3-(dimethylamino)propyl)(propyl)amino)-1-(3-phenylpropyl)quinolinium], in the data set on dsDNA, the “Em λ (ds DNA)” value was 533 nm, the “quantum yield (Φ) dsDNA” value is listed as 0.34, the absorbance λEx dsDNA worked out at 499 nm and the “emission λmaxEM dsDNA” value is 533.

As for `COc1ccc2c(/C=C3\Sc4cccc5c4N3CCC5)cc(N(CCC[N+](C)(C)C)CCC[N+](C)(C)C)[n+](C)c2c1` [PBI 4052, 2-(bis(3-(trimethylammonio)propyl)amino)-4-((5,6-dihydrothiazolo[5,4,3-ij]quinolin-2(4H)-ylidene)methyl)-7-methoxy-1-methylquinolinium], the “Relative Brightness ds DNA” value with ds DNA is 0.74. For the same molecule, the “Relative Brightness ss DNA” value in the data set with ss DNA was found to be 2.41.

As for `COc1ccc2c(/C=C3\Sc4cccc5c4N3CCC5)cc(N(CCC[N+](C)(C)C)CCC[N+](C)(C)C)[n+](Cc3ccccc3)c2c1` [PBI 4050, 1-Benzyl-2-(bis(3-(trimethylammonio)propyl)amino)-4-((5,6-dihydrothiazolo[5,4,3-ij]quinolin-2(4H)-ylidene)methyl)-7-methoxyquinolinium], the “Relative Brightness ds DNA” value with ds DNA came to 0.63. Besides, in the data set on ss DNA, the “Relative Brightness ss DNA” value worked out at 1.23.

Take `CCN(CC)c1cc(/C=C2\Sc3cccc4c3N2CCC4)c2ccccc2[n+]1-c1ccccc1` [PBI 3676, 2-(diethylamino)-4-((5,6-dihydrothiazolo[5,4,3-ij]quinolin-2(4H)-ylidene)methyl)-1-phenylquinolinium trifluoroacetate]: in the data set on dsDNA, the “quantum yield (Φ) dsDNA” value was found to be 0.48, the absorbance λEx dsDNA was 494 nm and the “emission λmaxEM dsDNA” value turned out to be 527.

In the case of `CCCN(CCC[N+](C)(C)C)c1cc(/C=C2\Sc3cccc4c3N2CCC4)c2ccc(OC)cc2[n+]1-c1ccccc1` [PBI 4054, 4-((5,6-dihydrothiazolo[5,4,3-ij]quinolin-2(4H)-ylidene)methyl)-7-methoxy-1-phenyl-2-(propyl(3-(trimethylammonio)propyl)amino)quinolinium], in the data set on ds DNA, the “Relative Brightness ds DNA” value is listed as 1.19. Also, in the data set on ss DNA, the “Relative Brightness ss DNA” value turned out to be 3.10.
